Results as given in article PMC6372246 (ACS Omega, 2019).
Several values for one entry are separate records, joined by “and”; a condition that tells them apart may be missing. Identical values can stand only once.

Columns and labels:
[1] = target: GRPR; details: read-out: Ki (reported value); murine Swiss 3T3 cells; cited from earlier work
[2] = target: GRPR (Homo sapiens, UniProt P30550); assay: Fluorometric calcium release assay; type: cell-based; details: PC-3 cells, 50 nM
Chain of GRPR (Homo sapiens, UniProt P30550) (P30550 whole entry): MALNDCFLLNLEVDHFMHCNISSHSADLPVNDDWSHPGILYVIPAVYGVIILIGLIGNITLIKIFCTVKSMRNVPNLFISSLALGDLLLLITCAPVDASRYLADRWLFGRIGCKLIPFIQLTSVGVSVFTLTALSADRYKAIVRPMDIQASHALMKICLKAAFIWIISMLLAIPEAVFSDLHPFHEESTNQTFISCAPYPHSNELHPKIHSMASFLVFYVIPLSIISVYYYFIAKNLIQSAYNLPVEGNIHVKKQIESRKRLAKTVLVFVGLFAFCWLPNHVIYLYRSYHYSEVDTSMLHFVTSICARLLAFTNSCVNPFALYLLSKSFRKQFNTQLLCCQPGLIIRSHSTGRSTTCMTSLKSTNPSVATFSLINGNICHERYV

Compound	Ki [1]	Intracellular calcium release [2]
D-Phe-Gln-Trp-Ala-Val-Gly-His-Leu-ψ-Tac-NH2 [RC-3950-II]	0.078 nM	
Nc1ncnc2c1ncn2[C@@H]1O[C@H](COP(=O)(O)OP(=O)(O)OP(=O)(O)O)[C@@H](O)[C@H]1O [ATP, adenosine triphosphate]		511 ± 45.5 RFUs and > 500 RFUs
